Test results from paper PMC11189555, “Aryl amino acetamides prevent Plasmodium falciparum ring development via targeting the lipid-transfer protein PfSTART1” (Nature Communications, 2024).
Where “and” joins values, the source holds several entries; their conditions need not be identical. Identical values can stand only once. Like-named read-outs stand apart in the source and are kept apart here.

Experiments:
CR-N309K parasites = assay: Growth inhibition assay (72 h, LDH activity); assay type: cell-based, Plasmodium falciparum
Procedure: (§1) Parasite growth assays with inhibitory compounds were performed as per[11] and are fully described in the Supplementary Information.
(§2) Molecular biology and transfection of P. falciparum: CRISPR method.
(§3) The full 5’ homology region of pfstart1 (either WT, N309K or N330K) was amplified from pPfSTART1-HA-2A-Neo-glmS with the same 5’ BglII primer and a new 3’ primer that replaced with PstI with SpeI and introduced a stop codon. The PCR product was then digested with BglII and SpeI and inserted into similarly digested p1.2 parasite vector2. The p1.2 vector had previously been inserted with a homology region amplified from the 3’ end of the pfstart1 gene (3’HB) to form a second homology block for double recombination. The primers used to amplify 3’HB are listed primers listed in […]
(§4) 60 μg of p1.2-PfSTART1(WT/N309K/N330K) plasmid was linearised with KasI, precipitated in 3 M sodium acetate and ethanol (70% final concentration) overnight at -20°C. The DNA pellet was washed in cold 70% ethanol and resuspended in cytomix 3.
(§5) 50 μ M of crRNA ( Table S 2) and 50 μM of tracRNA (Integrated DNA Technologies) were allowed to form a duplex (5 min at 95°C), and Cas9 enzyme (Integrated DNA Technologies) was added, and incubated for 20 min at room temperature 4. This crRNA -tracRNA -Cas9 mix was added to each DNA preparation and transfected to 3D7 ring parasites using the Bio -Rad Gene Pulser at 310 V and 950 μF.
(§6) Parasites containing the transfected DNA were selected using 2.5 nM WR99210 (Jacobus). Parasites lines were cloned using limiting dilution. Correct integration was tested by PCR (using primer START_5’UTR.F and START_Int.R1 , Table S 2), and sequencing was done using the primers START_3F and START_Int.R2 (Table S 2).
(§7) Growth inhibition assays. Synchronised ring-stage parasites (0.3-0.6% parasitemia, 2% haematocrit) were grown for 72 h in a serial-dilution of the compound under […]
(§8) and compound 4. Note that M-833 was first purchased from MolPort (MolPort -002-267-916) then made in-house at WEHI: the differences observed in EC50s across experiments are attributed to the different batches of M -833. For some experiments, 0, 0.25 or 2.5 mM of glucosamine (GlcN) was also added. Experiments were set up in technical duplicates or triplicates. Following a freeze -thaw cycle, lactate dehydrogenase (LDH) activity was assessed as an indicator of parasite growt h 5. 30 μL of parasite culture was incubated for 30 min in the dark with 75 μL Malstat mixture (0.1 M Tris pH 9.0, 20 g/L lactic acid, pH 7.5, 0.2% Triton-X100, 0.5 g/L acetylpyridine adenine dinucleotide (APAD, Sigma), 200 μg/mL nitroblue tetrazolium (NBT; Sigma), 1 μg/mL phenozine ethosulfate (PES; Sigma)). Absorbance was then measured at 650 nm, transformed using the formula below, plotted against the logarithm of the concentrations, and a non-linear regression (log(inhibitor) vs. response, variable slope) was calculated using GraphPad Prism to assess the half-inhibitory […]
(§9) Growth inhibition % = (1 − average(sample)− average(uRBC)) ∗ 100 […]
(§10) The DMSO samples were also used to assess growth of parasite in the presence of 0.25 and 2.5 mM GlcN (normalised by DMSO in 0 mM GlcN).
(§11) Egress, invasion & recovery assay. To measure egress, invasion and follow up recovery in the presence of different compounds, we adapted the method developed in6, using Hyp1-Nluc parasites7. These parasites episomally express the exported PEXEL protein Hyp1 (PF3D7_0113300) tagged with a NanoLuc luciferase (NLuc) and were selected with 2.5 nM WR99210 (Jacobus). Highly synchronised schizonts were obtained using ML10 (LifeArc) and sorbitol synchronisation, and Percoll-purified (the culture was gently layered over 67% Percoll (Cytiva) in RPMI, and centrifuged for 15 min at 1500 g and the schizont layer was collected and washed). In a 96-well plate, […]

CR-N330K parasites = assay: Growth inhibition assay (72 h, LDH activity); assay type: cell-based, Plasmodium falciparum; conditions: for inhibition at 40 µM / inhibition at 0.00203221 µM / inhibition at 0.00609663 µM / inhibition at 0.0182899 µM / inhibition at 0.0548697 µM / inhibition at 0.164609 µM / inhibition at 0.493827 µM / inhibition at 1.48148 µM / inhibition at 4.44444 µM / inhibition at 13.3333 µM / EC50: Plasmodium falciparum; for inhibition at 40 µM / inhibition at 0.00203221 µM / inhibition at 0.00609663 µM / inhibition at 0.0182899 µM / inhibition at 0.0548697 µM / inhibition at 0.164609 µM / inhibition at 0.493827 µM / inhibition at 1.48148 µM / inhibition at 4.44444 µM / inhibition at 13.3333 µM: read-out: Growth inhibition assay, NORMALISED; for inhibition at 0.00203221 µM: conc 2.03221 nM; for inhibition at 0.00609663 µM: conc 6.09663 nM; for inhibition at 0.0182899 µM: conc 18.2899 nM; for inhibition at 0.0548697 µM: conc 54.8697 nM; for inhibition at 0.164609 µM: conc 164.609 nM; for inhibition at 0.493827 µM: conc 493.827 nM; for inhibition at 1.48148 µM: conc 1481.48 nM; for inhibition at 4.44444 µM: conc 4444.44 nM
Procedure: as §1, §2, §3, §4, §5, §6, §7, §8, §9, §10, §11

[1] = 0.25 mM GlcN, M833 dilution point 1 of 10 (starting concentration 40 uM)
[2] = 2.5 mM GlcN, M833 dilution point 1 of 10 (starting concentration 40 uM)
[3] = 2.5 mM GlcN, M833 dilution point 2 of 10 from 40 uM start
[4] = 2.5 mM GlcN, M833 dilution point 3 of 10 from 40 uM start

## Cc1cc(Cl)c(S(=O)(=O)N2CCCC2)cc1OCC(=O)NC1CCCCC1 [M-833]
CR-N309K parasites; 0 mM GlcN, conc 13333.3 nM
  Growth inhibition assay, NORMALISED: 96.3035 and 81.5013
CR-N309K parasites; 0 mM GlcN, conc 40000 nM
  Growth inhibition assay, NORMALISED: 90.3753
CR-N309K parasites; [1]
  NORMALISED (growth inhibition, LDH absorbance vs DMSO and uRBC): 109.622 and 93.8958 and 89.0356
CR-N309K parasites; 0.25 mM GlcN, M833 dilution point 2 of 10 from 40 uM start
  NORMALISED (growth inhibition, LDH absorbance vs DMSO and uRBC): 100.45 and 85.8318 and 85.1660
CR-N309K parasites; 0.25 mM GlcN, M833 dilution point 3 of 10 from 40 uM start
  NORMALISED (growth inhibition, LDH absorbance vs DMSO and uRBC): 91.9964 and 60.0606 and 52.4793
CR-N309K parasites; [2]
  NORMALISED (growth inhibition, LDH absorbance vs DMSO and uRBC): 151.073 and 87.1969 and 79.8969
CR-N309K parasites; [3]
  NORMALISED (growth inhibition, LDH absorbance vs DMSO and uRBC): 113.734 and 82.9449 and 82.5963
CR-N309K parasites; [4]
  NORMALISED (growth inhibition, LDH absorbance vs DMSO and uRBC): 124.034 and 76.1318 and 75.9272
CR-N309K parasites; Fig 2D
  fold resistance compared to CR-WT: over 81 fold
CR-N309K parasites; Plasmodium falciparum, 0 mM GlcN, conc 40000 nM, read-out: Growth inhibition assay, NORMALISED
  inhibition at 40 µM: 107%
CR-N309K parasites; Plasmodium falciparum, 72 h, read-out: EC50 (95% confidence interval), Fig 2D, 72 h, n = 3
  EC50: 4.03 µM
CR-N309K parasites; Plasmodium falciparum, Fig 3F, 0 mM GlcN, n = 3, read-out: EC50 M-833 (95% confidence interval)
  EC50: 4 µM
CR-N309K parasites; Plasmodium falciparum, read-out: EC50 M-833 (95% confidence interval), Fig 3F, 0.25 mM GlcN, n = 3
  EC50: 2.18 µM
CR-N309K parasites; Plasmodium falciparum, read-out: EC50 M-833 (95% confidence interval), Fig 3F, 2.5 mM GlcN, n = 3
  EC50: 0.768 µM
CR-N309K parasites; not statistically significant
  fold reduction of EC50 on addition of 2.5 mM GlcN: 5.2 fold
CR-N330K parasites
  effect of GlcN addition on EC50: did not impact the EC50
CR-N330K parasites; 0 mM GlcN, conc 13333.3 nM
  Growth inhibition assay, NORMALISED: 83.0053 and 71.7328 and 58.9456
CR-N330K parasites; 0 mM GlcN, conc 40000 nM
  Growth inhibition assay, NORMALISED: 89.2357 and 89.8575
  inhibition at 40 µM: 98.2%
CR-N330K parasites; [1]
  NORMALISED (growth inhibition, LDH absorbance vs DMSO and uRBC): 90.8081 and 87.9797 and 87.1506
CR-N330K parasites; [2]
  NORMALISED (growth inhibition, LDH absorbance vs DMSO and uRBC): 93.6897 and 84.3760 and 68.7638
CR-N330K parasites; [3]
  NORMALISED (growth inhibition, LDH absorbance vs DMSO and uRBC): 66.9588 and 63.6686 and 78.5050
CR-N330K parasites; [4]
  NORMALISED (growth inhibition, LDH absorbance vs DMSO and uRBC): 62.4014 and 35.5339 and 55.9192
CR-N330K parasites; Fig 2D
  fold resistance compared to CR-WT: over 81 fold
CR-N330K parasites; 0.25 mM GlcN
  inhibition at 0.00203221 µM: 1.04%
  inhibition at 0.00609663 µM: 4.9%
  inhibition at 0.0182899 µM: 1.5%
  inhibition at 0.0548697 µM: 3.6%
  inhibition at 0.164609 µM: -2.8%
  inhibition at 0.493827 µM: 5.89%
  inhibition at 1.48148 µM: 18.6%
  inhibition at 4.44444 µM: 54.4%
CR-N330K parasites; 0.25 mM GlcN, conc 13333.3 nM
  inhibition at 13.3333 µM: 83.8%
CR-N330K parasites; 0.25 mM GlcN, conc 40000 nM
  inhibition at 40 µM: 98.3%
CR-N330K parasites; 2.5 mM GlcN
  inhibition at 0.00203221 µM: -48.3%
  inhibition at 0.00609663 µM: -31%
  inhibition at 0.0182899 µM: -30.8%
  inhibition at 0.0548697 µM: -27.3%
  inhibition at 0.164609 µM: -23.4%
  inhibition at 0.493827 µM: -11.7%
  inhibition at 1.48148 µM: 13.1%
  inhibition at 4.44444 µM: 36.6%
CR-N330K parasites; 2.5 mM GlcN, conc 13333.3 nM
  inhibition at 13.3333 µM: 32.3%
CR-N330K parasites; 2.5 mM GlcN, conc 40000 nM
  inhibition at 40 µM: 94%
CR-N330K parasites; 72 h, read-out: EC50 (95% confidence interval), Fig 2D, 72 h, n = 3
  EC50: 9.51 µM
CR-N330K parasites; Fig 3F, 0 mM GlcN, n = 3, read-out: EC50 M-833 (95% confidence interval)
  EC50: 9.5 µM
CR-N330K parasites; read-out: EC50 M-833 (95% confidence interval), Fig 3F, 0.25 mM GlcN, n = 3
  EC50: 8.92 µM
CR-N330K parasites; read-out: EC50 M-833 (95% confidence interval), Fig 3F, 2.5 mM GlcN, n = 3
  EC50: 8.73 µM
